The values below come from patent publication US20120252119A1, “METHODS FOR THE COLLECTION AND MATURATION OF OOCYTES” (priority 2009, published 2012).

Molecules are shown by their SMILES.

For assay [1], the system named is bovine oocytes. The assay can be described thus: Bovine in vitro fertilization and embryo culture (cleavage, blastocyst development). In kind it is cell-based. On the procedure:
At 24 or 30 hours after IVM, COCs were washed twice using Bovine VitroWash (Cook Australia), and transferred to insemination dishes containing in vitro fertilisation (IVF) medium (Bovine VitroFert, Cook Australia) supplemented with penicillamine (0.2 mM; Sigma), hypotaurine (0.1 mM; Sigma), and heparin (2 mg/ml; Sigma). Frozen semen from a single bull of proven fertility was used for insemination. Briefly, thawed semen was layered over a discontinuous (45%: 90%) Percoll gradient (Amersham Bioscience) and centrifuged for 20-25 minutes at 700 g. The supernatant was removed and the sperm pellet was washed with 500 μl Bovine VitroWash and centrifuged for a further 5 minutes at 200 g. […] Embryos were assessed for quality at Day 8 according to the definitions presented in Stingfellow and Seidel, 1998, Manual of the International Embryo Transfer Society. […]
Therefore, cumulus-oocyte complexes (COCs) were aspirated and selected in either follicular fluid, collection medium or collection medium supplemented with 100 μM forskolin (FSK) and 500 μM IBMX for 2 hours. […] Oocyte developmental capacity was then assessed after in vitro fertilization and embryo development was assessed by the cleavage rate and blastocyst rate on day 8. […]

Assay [2] deals with bovine oocytes. The assay can be described thus: Oocyte nuclear morphology assessment (GV configuration, GVBD, meiotic progression). Format: cell-based. On the procedure: At the end of the incubation, COCs were denuded and oocytes were fixed for 30 min in 4% paraformaldehyde in PBS (pH 7.4). Oocytes were then permeabilized in 0.1% Triton X-100 in 0.1% sodium citrate for 1 hour, then transferred to 0.001% 4′,6-diamidino-2-phenylindole (DAPI), a fluorescence stain for nuclear material, for 15 min. Oocytes were rinsed 3 times in PBS+0.03% BSA, mounted on slides and evaluated for nuclear status at 400× using an Olympus fluorescence microscope. Stages of germinal vesicle (GV) and subsequent meiotic development were assessed based on known techniques (Chohan and Hunter, 2003, Anim. Reprod. Sci. 76: 43-51). In brief, GV chromatin of bovine oocytes was classified into: GV I—condensed filamentous chromatin around the nucleolus and nuclear membrane; GV II—filamentous chromatin surrounding the nucleolus; GV III—filamentous chromatin clumps are distributed in the nucleus and the nucleolus has disappeared; GV IV—chromatin has condensed into a thick clump; Early diakenesis-chromatin beginning to condense into a single lump; Diakenesis-chromatin has condensed into a single lump; Metaphase I—tetrads are aligned on the spindle; and Metaphase II—the metaphase chromatin is evident as well as a small chromatin-containing polar body.
Oocytes were then fixed and assessed for meiotic progression and classified as GV (germinal vesical intact—still under meiotic arrest) or GVBD (germinal vesical breakdown—resumption of meiosis). A mean number of 45 oocytes were used in each treatment group and time-point from four replicate experiments. The presence of letters (a or b) above each column indicate a statistical difference between the means as determined by ANOVA analysis followed by Bonferronni's post hoc test, P<0.05.
Oocytes were exposed to pre-IVM phase media comprising pure follicular fluid, collection medium, or collection medium supplemented with cAMP modulators (forskolin and IBMX) (A), followed by extended culture in the presence (C; E) or absence (B; D) of the type-3 PDE inhibitor, cilostamide (20 μM), plus follicle stimulating hormone. Oocytes were then fixed and assessed for GV configuration at 2, 5 and 9 hours. A mean number of 40 oocytes were used in each treatment group and time-point from four replicate experiments.
As indicated above, oocytes were aspirated and selected in either follicular fluid, collection medium or collection medium supplemented with 100 μM forskolin (FSK) and 500 μM IBMX for 2 hours. […] Oocytes were then fixed and assessed for meiotic progression at 20, 24 and 28 hours. A mean number of 45 oocytes were used in each treatment group and time-point from four replicate experiments.

The test system of assay [3] is oocyte-cumulus cell gap junctional communication. The assay can be described thus: Oocyte-cumulus cell gap junctional communication assay (calcein transfer). The following applies: after 3 hours of IVM culture post pre-IVM phase, FIG. 7. In kind it is cell-based, bovine.
Experimental: Cumulus-oocyte gap junctional communication (GJC) was measured by quantitative fluorescence microscopy of calcein transfer to the oocyte as described previously (Thomas et al., 2004, In “Biol. Reprod.”, pp 1142-1149). GJC was measured either after 2 hours of pre-IVM phase or followed by an additional 3 hours of IVM with or without cilostamide (20 μM). A mean number of 10-12 oocytes were used in each treatment group in each of four replicate experiments. After culture, COCs were transferred to a solution of 1 μM calcein-AM (3′,6′-di(O-acetyl)-2′,7′-bis[N,N-bis(carboxymethyl)amino methyl]-fluorescein, tetraacetoxy methyl ester; C-3100; Molecular Probes; Eugene, Oreg., USA) freshly prepared in a BSA-free Bovine VitroCollect (Cook Australia) supplemented with polyvinyl alcohol (PVA; 0.3 mg/ml). […] Prior to fluorescence microphotometry, COCs were completely denuded of their surrounding cumulus cells using vigorous pipetting so that only dye confined within the denuded oocyte after transport via gap junctions was measured. Within 30 minutes of denuding, the intra-oocyte fluorescence emission of calcein in oocytes was measured using a fluorophotometric-inverted microscope (Leica, Wetzlar, Germany). […]
In the next assay the test system is human oocytes. The assay can be described thus: Human oocyte IVM, meiosis score. In kind it is cell-based. The following applies: for % GV / % GVBD / % PB: IVM with 0.1 μM cilostamide and FSH. As for the experimental part: Immature human cumulus-oocyte complexes (COC) were collected from young, healthy women (not from IVF patients). […] Oocyte pick-up was performed when the lead ovarian follicle reached 12 mm. Immature oocytes were then stratified to various treatments during either the Pre-IVM or IVM periods, as detailed below. In addition, time of removal of somatic cells from oocytes (denuding) during the oocyte maturation period was examined. The following trials were conducted: • Dose of PDE3-inhibitor (cilostamide) during IVM: 0 versus 0.1 versus 1.0 μM • cAMP modulators during Pre-IVM: control versus IBMX versus IBMX+forskolin • Effect of time of oocyte denuding on embryo development: 30 versus 40 versus 44-48 hours
At the oocyte pick-up, COC were collected immediately into pre-IVM treatments in VitroCollect medium (Cook Australia, Brisbane, Australia) and held for one hour. Following pre-IVM, COC were washed and then transferred to IVM treatments (e.g. dose of cilostamide) in VitroMat medium (Cook) and matured under standard conditions. At the various times post-denuding, oocytes were monitored for maturation (polar body [PB] extrusion). At the end of maturation (48 hours) a final meiosis score was given. As oocytes matured they were inseminated using standard intra-cytoplasmic sperm injection (ICSI) procedures using donor sperm. 24 hours later fertilisation rates were determined. Embryos were cultured for up to 6 days until developmental arrest using standard procedures.

Assay [4] has as its system FSH-induced oocyte maturation. The assay can be described thus: EGFR kinase inhibitor on FSH-induced oocyte maturation in presence of cilostamide. In kind it is cell-based, bovine. On the procedure:
The basic oocyte maturation medium (also referred to as the “IVM medium” or “IVM phase medium”) used for the IVM phase was a bovine maturation medium (termed Bovine VitroMat, Cook Australia), a medium formulated to closely replicate the ionic composition of bovine follicular fluid. Where indicated, the type-3 PDE specific inhibitor cilostamide (20 μM; Biomol Plymouth Meeting, Pa.) or the epidermal growth factor receptor (EGFR) kinase inhibitor, AG1478 (Alexis Biochemicals, San Diego, Calif.), were added to the IVM medium from a millimolar stock solution stored at −20° C. dissolved in DMSO. […]
At the end of the incubation, COCs were denuded and oocytes were fixed for 30 min in 4% paraformaldehyde in PBS (pH 7.4). Oocytes were then permeabilized in 0.1% Triton X-100 in 0.1% sodium citrate for 1 hour, then transferred to 0.001% 4′,6-diamidino-2-phenylindole (DAPI), a fluorescence stain for nuclear material, for 15 min. Oocytes were rinsed 3 times in PBS+0.03% BSA, mounted on slides and evaluated for nuclear status at 400× using an Olympus fluorescence microscope. Stages of germinal vesicle (GV) and subsequent meiotic development were assessed based on known techniques (Chohan and Hunter, 2003, Anim. Reprod. Sci. 76: 43-51). […]
Oocytes were then fixed and assessed for meiotic progression at 24 hours. […]

For assay [5], the system named is cAMP content of the whole COCs. The assay can be described thus: cAMP content of bovine COCs, radioimmunoassay. Format: cell-based. The following applies: agent alone, up to 2 hours, FIG. 2. On the procedure:
Oocytes were aspirated with their cumulus vestments intact (COCs). A subset of the COCs were denuded of their cumulus vestment prior to assay (DO). Aspiration and subsequent selection procedures (pre-IVM phase) were performed for 2 hours where oocytes (COCs and DOs) were processed in various media (termed “pre-IVM phase media” or “pre-IVM media”). These included processing of oocytes either in follicular fluid, or in two types of collection medium. […] Cyclic AMP content of COCs and denuded oocytes (DOs), i.e. those oocytes cultured as COCs but denuded of their cumulus vestment prior to assay, were measured using a radioimmunoassay method described and validated previously (Reddoch et al., 1986, Endocrinology 119: 879-886). […] Briefly, supernatants were collected, evaporated, resuspended in assay buffer (50 mM sodium acetate, pH 5.5) and acetylated by the addition of triethylamine (AJAX Chemicals, Sydney, Australia) and acetic anhydride (BDH Laboratory Supplies, Poole, England) 2:1 v/v. cAMP was measured in duplicates after appropriate dilution. ^125I-labelled cAMP (specific activity of 2175 Ci/mM) and cAMP antibody (as prepared by Reddoch et al supra) were added to samples and left overnight at 4° C. […] The supernatant was removed and the pellet dried and counted using a gamma counter. […]

For the compound `CN(C(=O)CCCOc1ccc2[nH]c(=O)ccc2c1)C1CCCCC1` [cilostamide], the “% Blastocysts” value in the assay with bovine oocytes [1] (collection phase CM without cAMP modulators, IVM +cilostamide, maturation time 24) is recorded as 22%. Also, the “rates of GVBD” value in the assay with bovine oocytes [2] (2 h pre-IVM, 7 h IVM with FSH and cilostamide 20 μM, all pre-IVM treatments, FIG. 5) was “significantly lowered the rates of GVBD”. Besides, the “oocytes at GV IV” value with bovine oocytes [2] (9 hours, collection medium lacking cAMP modulators, 7 h IVM+cilostamide, FIG. 6E) is recorded as 51%±10. Further, the “oocytes at M I stage” value is recorded as 36%±4 in the assay with bovine oocytes [2] (20 hours of IVM with cilostamide, absence of FSH, FIG. 8A) and 21%±4 in the assay on bovine oocytes [2] (20 hours of IVM+cilostamide, presence of FSH, FIG. 8B). Also, in the assay with bovine oocytes [2] (24 hours of IVM with cilostamide, absence of FSH, FIG. 8A), the “oocytes progressed to M II stage” value was 50%. Further, the “oocytes arrested at the M I stage” value in the assay with bovine oocytes [2] (cilostamide, absence of FSH, 24 hours of culture, FIG. 8A) is 40-50%. In assay [3], the “levels of gap junctional communication” value is given as “had no effect in maintaining the level of gap junctional communication”. Further, the “effect of dose on resumption of meiosis” value in the assay on human oocytes (cilostamide 0.1 μM) is “non-inhibiting”; in the assay on human oocytes (cilostamide 1.0 μM), “inhibiting dose”. The entries for the “Germinal Vesicle Breakdown” value in the assay on human oocytes (cilostamide 0.1 μM during IVM (n = 39)) and in the assay on human oocytes (cilostamide 1.0 μM during IVM (n = 38)) were 44% and 13%, respectively.

As for `COc1cc2ncnc(Nc3cccc(Cl)c3)c2cc1OC` [AG1478], the maturation percentage result in assay [4] (FSH 100 mlU, cilostamide 20 μM, increasing doses of AG1478, 24 hours, from >80% without, FIG. 10) is “approximately 5%”. For the same compound, the “meiotic recovery of FSH and cilostamide treated COCs” value in assay [4] (increasing doses of AG1478) is “completely prevented the meiotic recovery”.

For the compound `CC(C)Cn1c(=O)n(C)c(=O)c2[nH]cnc21` [IBMX, 3-isobutyl 1-methylxanthine], the “COC cAMP levels during pre-IVM” value in assay [5] was “maintained cAMP levels for 2 hours”. Further, in the assay on bovine oocytes [1] (30-60 minutes pre-IVM, IVM with 20 μM cilostamide, FIG. 11B), the “development to the blastocyst stage” value is listed as “significantly higher than control”. Also, the “% GV” value turned out to be 10.3% in the assay with human oocytes (36-40 hours), 9.4% with human oocytes (42-44 hours), 11.1% with human oocytes (30 hours) and 10.3% in the assay on human oocytes (48 hours). For the same compound, the “% GVBD” value with human oocytes (36-40 hours) is 43.6%; in the assay on human oocytes (42-44 hours), 28.1%; with human oocytes (30 hours) it was 48.1%; in the assay on human oocytes (48 hours) it was 28.2%. Further, the “% PB” value in the assay on human oocytes (36-40 hours) was found to be 46.2%; in the assay with human oocytes (42-44 hours), 62.5%; in the assay on human oocytes (30 hours), 40.7%; with human oocytes (48 hours) it was 61.5%.
